Data set [1] concerns HIV-1 strains, for e.g., 92HT599. In words: Antiviral activity: p24 estimation in MT-2 cells infected with HIV-1. Format: cell-based. The conditions noted are these: Human immunodeficiency virus 1, MT2, MT-2 cells infected with HIV-1, p24, ~96 hours; for IC50: read-out: Antiviral activity IC50 (nM) Efficacy IC50. In outline:
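MT-2 cells infected with HIV-1 (e.g. 92HT599), plated at 30,000 cells/well with compound (DMSO ≤1%) and incubated ~96 h. Supernatant p24 quantified by kit; percent inhibition relative to vehicle controls.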

Data set [2] in a line: Single dose oral pharmacokinetic study. Format: in vivo. To be noted: mouse, mice, 30 mg/kg, plasma; for AUC(0-t): read-out: Mice oral PK @30 mg/kg AUC 0-t; for Cmax: read-out: Mice oral PK @30 mg/kg Cmax. The essentials:
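Rats or mice received 30 mg/kg orally at 10 ml/kg dose volume. Retro-orbital blood was taken into K3 EDTA at defined intervals under light ether anesthesia and centrifuged to plasma. Plasma levels were measured by LC-MS-MS.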

SMILES strings stand for the structures.

As for `CC1([C@@H]2CC[C@]3(C(=O)N4CCC[C@H]4c4ncc(-c5ccccn5)[nH]4)CC[C@]4(C)[C@H](CC[C@@H]5[C@@]6(C)CC[C@H](OC(=O)[C@H]7C[C@@H](C(=O)O)C7(C)C)C(C)(C)[C@@H]6CC[C@]54C)[C@@H]23)CC1` [Compound 51, (1R,3S)-2,2-dimethyl-3-((((1R,3aS,5aR,5bR,7aR,9S,11aR,11bR,13aR,13bR)-5a,5b,8,8,11a-pentamethyl-1-(1-methylcyclopropyl)-3a-((S)-2-(5-(pyridin-2-yl)-1H-imidazol-2-yl)pyrrolidine-1-carbonyl)icosahydro-1H-cyclopenta[a]chrysen-9-yl)oxy)carbonyl)cyclobutane-1-carboxylic acid], in data set [1], the IC50 (commonly the concentration at which inhibition is half-maximal) was 43.3 nM. For the same compound, in data set [2], the AUC(0-t) came to 160 µg·h/mL and the Cmax was determined as 4930 ng/mL.

Regarding `COCCO[C@@H]1C[C@@H](c2nc(-c3ccc(F)cc3)c[nH]2)N(C(=O)[C@]23CC[C@@H](C4(C)CC4)[C@@H]2[C@H]2CC[C@@H]4[C@@]5(C)CC[C@H](OC(=O)[C@H]6C[C@@H](C(=O)O)C6(C)C)C(C)(C)[C@@H]5CC[C@@]4(C)[C@]2(C)CC3)C1` [Compound 55, (1R,3S)-3-((((1R,3aS,5aR,5bR,7aR,9S,11aR,11bR,13aR,13bR)-3a-((2S,4R)-2-(4-(4-fluorophenyl)-1H-imidazol-2-yl)-4-(2-methoxyethoxy)pyrrolidine-1-carbonyl)-5a,5b,8,8,11a-pentamethyl-1-(1-methylcyclopropyl)icosahydro-1H-cyclopenta[a]chrysen-9-yl)oxy)carbonyl)-2,2-dimethylcyclobutane-1-carboxylic acid], in data set [1], the IC50 is 1.04 nM. In addition, in data set [2], the AUC(0-t) worked out at 381 µg·h/mL and the Cmax came to 14300 ng/mL.

On to `CC(C)(C)c1c[nH]c([C@@H]2CCCN2C(=O)[C@]23CC[C@@H](C4(C)CC4)[C@@H]2[C@H]2CC[C@@H]4[C@@]5(C)CC[C@H](OC(=O)[C@H]6C[C@@H](C(=O)O)C6(C)C)C(C)(C)[C@@H]5CC[C@@]4(C)[C@]2(C)CC3)n1` [Compound 56, (1R,3S)-3-((((1R,3aS,5aR,5bR,7aR,9S,11aR,11bR,13aR,13bR)-3a-((S)-2-(4-(tert-butyl)-1H-imidazol-2-yl)pyrrolidine-1-carbonyl)-5a,5b,8,8,11a-pentamethyl-1-(1-methylcyclopropyl)icosahydro-1H-cyclopenta[a]chrysen-9-yl)oxy)carbonyl)-2,2-dimethylcyclobutane-1-carboxylic acid], for which, in data set [1], the IC50 was 56.2 nM. In data set [2], the AUC(0-t) is 375 µg·h/mL and the Cmax is 12000 ng/mL.

On to `CC1([C@@H]2CC[C@]3(C(=O)N4CCC(c5ncc(-c6ccccc6)[nH]5)CC4)CC[C@]4(C)[C@H](CC[C@@H]5[C@@]6(C)CC[C@H](OC(=O)[C@H]7C[C@@H](C(=O)O)C7(C)C)C(C)(C)[C@@H]6CC[C@]54C)[C@@H]23)CC1` [Compound 57, (1R,3S)-2,2-dimethyl-3-((((1R,3aS,5aR,5bR,7aR,9S,11aR,11bR,13aR,13bR)-5a,5b,8,8,11a-pentamethyl-1-(1-methylcyclopropyl)-3a-(4-(5-phenyl-1H-imidazol-2-yl)piperidine-1-carbonyl)icosahydro-1H-cyclopenta[a]chrysen-9-yl)oxy)carbonyl)cyclobutane-1-carboxylic acid], for which, in data set [1], the 50% inhibitory concentration (IC50) was 4.42 nM. For the same compound, in data set [2], the AUC(0-t) was determined as 66.4 µg·h/mL and the Cmax came out at 2790 ng/mL.

In the case of `CC1([C@@H]2CC[C@]3(C(=O)N4CCC[C@H]4c4ncc(C(F)(F)F)[nH]4)CC[C@]4(C)[C@H](CC[C@@H]5[C@@]6(C)CC[C@H](OC(=O)[C@H]7C[C@@H](C(=O)O)C7(C)C)C(C)(C)[C@@H]6CC[C@]54C)[C@@H]23)CC1` [Compound 59, (1R,3S)-2,2-dimethyl-3-((((1R,3aS,5aR,5bR,7aR,9S,11aR,11bR,13aR,13bR)-5a,5b,8,8,11a-pentamethyl-1-(1-methylcyclopropyl)-3a-((S)-2-(5-(trifluoromethyl)-1H-imidazol-2-yl)pyrrolidine-1-carbonyl)icosahydro-1H-cyclopenta[a]chrysen-9-yl)oxy)carbonyl)cyclobutane-1-carboxylic acid], the inhibition – broadly, the drop in the measured response relative to a control, in per cent – at 0.1 µM in data set [1] (0.1 μM) was 71%. In data set [1] (1 μM), the inhibition at 1 µM is 100%. Besides, the IC50 in data set [1] was 55.4 nM. Further, in data set [2], the AUC(0-t) was 451 µg·h/mL and the Cmax came to 15700 ng/mL.

In the case of `CC(C)(CC(=O)O[C@H]1CC[C@]2(C)[C@H]3CC[C@@H]4[C@H]5[C@H](C6(C)CC6)CC[C@]5(C(=O)N5CCC[C@H]5c5ncc(-c6ccccn6)[nH]5)CC[C@@]4(C)[C@]3(C)CC[C@H]2C1(C)C)C(=O)O` [Compound 62, 2,2-dimethyl-4-oxo-4-(((1R,3aS,5aR,5bR,7aR,9S,11aR,11bR,13aR,13bR)-5a,5b,8,8,11a-pentamethyl-1-(1-methylcyclopropyl)-3a-((S)-2-(5-(pyridin-2-yl)-1H-imidazol-2-yl)pyrrolidine-1-carbonyl)icosahydro-1H-cyclopenta[a]chrysen-9-yl)oxy)butanoic acid], the IC50 in data set [1] was 0.8 nM. Moreover, in data set [2], the AUC(0-t) was 93.1 µg·h/mL and the Cmax was found to be 7120 ng/mL.

Regarding `CC(C)(CC(=O)O)CC(=O)O[C@H]1CC[C@]2(C)[C@H]3CC[C@@H]4[C@H]5[C@H](C6(C)CC6)CC[C@]5(C(=O)N5CCC[C@H]5c5ncc(-c6ccccn6)[nH]5)CC[C@@]4(C)[C@]3(C)CC[C@H]2C1(C)C` [Compound 63, 3,3-dimethyl-5-oxo-5-(((1R,3aS,5aR,5bR,7aR,9S,11aR,11bR,13aR,13bR)-5a,5b,8,8,11a-pentamethyl-1-(1-methylcyclopropyl)-3a-((S)-2-(5-(pyridin-2-yl)-1H-imidazol-2-yl)pyrrolidine-1-carbonyl)icosahydro-1H-cyclopenta[a]chrysen-9-yl)oxy)pentanoic acid], the IC50 in data set [1] is 3.6 nM. In data set [2], the AUC(0-t) is 120 µg·h/mL and the Cmax turned out to be 4470 ng/mL.

With `CC(C)(CC(=O)O)CC(=O)O[C@H]1CC[C@]2(C)[C@H]3CC[C@@H]4[C@H]5[C@H](C6(C)CC6)CC[C@]5(C(=O)N5CCC[C@H]5c5ncc(-c6cccc(F)c6)[nH]5)CC[C@@]4(C)[C@]3(C)CC[C@H]2C1(C)C` [Compound 64, 5-(((1R,3aS,5aR,5bR,7aR,9S,11aR,11bR,13aR,13bR)-3a-((S)-2-(5-(3-fluorophenyl)-1H-imidazol-2-yl)pyrrolidine-1-carbonyl)-5a,5b,8,8,11a-pentamethyl-1-(1-methylcyclopropyl)icosahydro-1H-cyclopenta[a]chrysen-9-yl)oxy)-3,3-dimethyl-5-oxopentanoic acid], the 50% inhibitory concentration (IC50) in data set [1] was 14.6 nM. In data set [2], the AUC(0-t) came to 105 µg·h/mL and the Cmax is 5250 ng/mL.

In the case of `CC(C)(CC(=O)O[C@H]1CC[C@]2(C)[C@H]3CC[C@@H]4[C@H]5[C@H](C6(C)CC6)CC[C@]5(C(=O)N5CCC[C@H]5c5ncc(-c6cccc(F)c6)[nH]5)CC[C@@]4(C)[C@]3(C)CC[C@H]2C1(C)C)C(=O)O` [Compound 65, 4-(((1R,3aS,5aR,5bR,7aR,9S,11aR,11bR,13aR,13bR)-3a-((S)-2-(5-(3-fluorophenyl)-1H-imidazol-2-yl)pyrrolidine-1-carbonyl)-5a,5b,8,8,11a-pentamethyl-1-(1-methylcyclopropyl)icosahydro-1H-cyclopenta[a]chrysen-9-yl)oxy)-2,2-dimethyl-4-oxobutanoic acid], the IC50 in data set [1] is 15.7 nM. Besides, in data set [2], the AUC(0-t) is 203 µg·h/mL and the Cmax amounted to 13300 ng/mL.

As for `COCCOc1ccc(-c2cnc([C@@H]3CCCN3C(=O)[C@]34CC[C@@H](C5(C)CC5)[C@@H]3[C@H]3CC[C@@H]5[C@@]6(C)CC[C@H](OC(=O)CC(C)(C)C(=O)O)C(C)(C)[C@@H]6CC[C@@]5(C)[C@]3(C)CC4)[nH]2)cc1` [Compound 66], the IC50 in data set [1] is 0.73 nM. In data set [2], the AUC(0-t) was determined as 62.1 µg·h/mL and the Cmax stood at 6590 ng/mL.

`COCCO[C@@H]1C[C@@H](c2nc(-c3ccc(F)cc3)c[nH]2)N(C(=O)[C@]23CC[C@@H](C4(C)CC4)[C@@H]2[C@H]2CC[C@@H]4[C@@]5(C)CC[C@H](OC(=O)CC(C)(C)C(=O)O)C(C)(C)[C@@H]5CC[C@@]4(C)[C@]2(C)CC3)C1` [Compound 67, 4-(((1R,3aS,5aR,5bR,7aR,9S,11aR,11bR,13aR,13bR)-3a-((2S,4R)-2-(4-(4-fluorophenyl)-1H-imidazol-2-yl)-4-(2-methoxyethoxy)pyrrolidine-1-carbonyl)-5a,5b,8,8,11a-pentamethyl-1-(1-methylcyclopropyl)icosahydro-1H-cyclopenta[a]chrysen-9-yl)oxy)-2,2-dimethyl-4-oxobutanoic acid]: the IC50 in data set [1] was 0.44 nM. Also, in data set [2], the AUC(0-t) came to 247 µg·h/mL and the Cmax came to 12300 ng/mL.

With `CC(C)(CC(=O)O[C@H]1CC[C@]2(C)[C@H]3CC[C@@H]4[C@H]5[C@H](C6(C)CC6)CC[C@]5(C(=O)N5CCC(c6ncc(-c7ccccc7)[nH]6)CC5)CC[C@@]4(C)[C@]3(C)CC[C@H]2C1(C)C)C(=O)O` [Compound 68, 2,2-dimethyl-4-oxo-4-(((1R,3aS,5aR,5bR,7aR,9S,11aR,11bR,13aR,13bR)-5a,5b,8,8,11a-pentamethyl-1-(1-methylcyclopropyl)-3a-(4-(5-phenyl-1H-imidazol-2-yl)piperidine-1-carbonyl)icosahydro-1H-cyclopenta[a]chrysen-9-yl)oxy)butanoic acid], the concentration for half-maximal inhibition (IC50) in data set [1] is 12.8 nM. Further, in data set [2], the AUC(0-t) is 23.5 µg·h/mL and the Cmax was 2020 ng/mL.

The record behind these values is patent US20170129916A1, “NOVEL BETULINIC PROLINE IMIDAZOLE DERIVATIVES AS HIV INHIBITORS” (HETERO RESEARCH FOUNDATION, priority 2014, published 2017).
